Common to all, as to format: in vivo
In experiment [1] the test system is sweetpotato whitefly (Bemisia tabacia). The experiment in a line: Insecticidal test for sweetpotato whitefly, spray on cotton plants. Conditions: 312 h, 200 ppm spray, large nymphs counted after 13 days, read-out: WF: activity at 200 ppm against whitefly (% Control rating). As to the method:
Insecticidal Test for Sweetpotato Whitefly (Bemisia tabacia)
Four mg of each test compound was dissolved by adding 4 mL of a 90:10 acetone:ethanol solvent mixture to the vial containing the sample compound. This solution was added to 16 mL of water containing 0.05% Tween 20 surfactant to produce 20 mL of a 200 ppm spray solution.
Five-week-old cotton plants reared in a greenhouse were stripped of all foliage except for the two uppermost true leaves that were greater than 5 cm in diameter.
These plants were then placed into a laboratory colony of whiteflies for two days for oviposition by the colony females. All whiteflies were then removed from the test plants with pressurized air. The spray solution was then applied to the test plants with a hand-held syringe fitted with hollow cone nozzle. One mL of spray solution was applied to each leaf top and bottom for a total of 4 mL per plant. Four replications of each test compound utilized a total of 16 mL spray solution. Plants were air dried and then placed in a holding chamber (28° C. and 60% RH) for 13 days. Compound efficacy was evaluated by counting, under an illuminated magnifying glass, the number of large nymphs (3rd-4th instar) per leaf.
Percent control based on reduction of large nymphs of a test compound compared to solution-only (no test compound) sprayed plants is reported in Tables 1-4.

Experiment [2] concerns cabbage looper (Trichoplusia ni). The experiment in a line: Insecticidal test for cabbage looper, treated cabbage leaf disc. To be noted: Trichoplusia ni, foliar, 120 h; 400 ppm, leaf-dip cabbage leaf disc, 2nd instar larvae, 5 days; read-out: CL: activity at 400 ppm against cabbage looper (% Control rating). As to the method: (§1) Insecticidal Test for Tobacco Budworm (Heliothis virescens), Beet Armyworm (Spodoptera exigua), and Cabbage Looper (Trichoplusia ni).
(§2) To prepare the test solution, the test compound was formulated at 400 ppm in 7.5 mL of 2 acetone:1 tap water. 250 μL of the test solution was pipetted upon the surface of 8 mL of lepidopteran diet (modified Shorey) contained in each of five one-ounce plastic cups (one cup=1 replication). A second-instar beet armyworm was placed upon the treated diet in each cup once the solvent had air-dried. The solutions remaining after completing applications to the one-ounce cups were then used as leaf-dip solutions for 3.5 cm leaf discs cut from cabbage leaves and cotton cotyledons. Five discs of each type of plant were dipped until thoroughly coated into each rate of each compound (=5 replications of each treatment). After air-drying, the treated leaf discs were placed individually into one-ounce plastic cups. Each dried, treated cotton cotyledon disc was infested with a 2nd instar tobacco budworm larva, and each cabbage leaf disc was infested with a 2nd instar cabbage looper larva. Cups containing the treated substrates and larvae were capped and then held in a growth chamber at 25° C., 50-55% RH, and 14 hr light: 10 hr dark for 5 days.

Experiment [3] concerns tobacco budworm (Heliothis virescens). The experiment is described as follows: Insecticidal test for tobacco budworm, treated cotton cotyledon leaf disc. Conditions: Heliothis virescens, foliar, 120 h; 400 ppm, leaf-dip cotton cotyledon disc, 2nd instar larvae, 5 days; read-out: TBW: activity at 400 ppm against tobacco budworm (% Control rating). As to the method: as §1, §2

Experiment [4] relates to two-spotted spider mite (Tetranychus urticae). The experiment in a line: Insecticidal test for two-spotted spider mite, ovicide method on cotton leaf discs. Conditions: Tetranychus urticae, foliar, 144 h, hatched larvae after 6 days, read-out: SM: activity against two-spotted spider mite (% Control rating). As to the method: Insecticidal Test for Two-Spotted Spider Mite (Tetranychus urticae) Ovicide Method: Ten adult female two-spotted spider mites were placed on eight 2.2 cm leaf discs of cotton leaf, allowed to oviposit over 24 hours, and thereafter removed. […] Discs were placed on an agar substrate and held at 24° C. and 90% RH for 6 days.

Experiment [5] has as its system beet armyworm (Spodoptera exigua). The experiment is described as follows: Insecticidal test for beet armyworm, treated lepidopteran diet. Conditions: Spodoptera exigua, 120 h; 400 ppm, treated diet surface, second-instar larvae, 5 days; read-out: BAW: activity at 400 ppm against beet armyworm (% Control rating). As to the method:
as §1, §2

The subject of experiment [6] is cotton aphid (Aphis gossypii). The experiment is described as follows: Insecticidal test for cotton aphid, spray on infested squash cotyledons. To be noted: Aphis gossypii, 72 h; 50 ppm spray, squash cotyledons, all life stages, 3 days; read-out: CA: activity at 50 ppm against cotton aphid (% Control rating). As to the method: Insecticidal Test for Cotton Aphid (Aphis gossypii)
To prepare spray solutions, 1 mg of each test compound was dissolved into 1 mL of a 90:10 acetone:ethanol solvent. This 1 mL of chemical solution was added to 19 mL of water containing 0.05% Tween 20 surfactant to produce a 50 ppm spray solution.
Squash cotyledons were infested with cotton aphid (all life stages)16-20 hours prior to application of spray solution. The solution was sprayed on both sides of each infested squash cotyledon (0.5 mL×2 each side) with a sweeping action until runoff. The plants were allowed to air dry and held for 3 days in a controlled room at 26° C. and 40% RH after which time the test was graded. Grading was by actual count using a dissecting microscope and comparison of test counts to the untreated check. Results are given in Tables 1-4 as percent control based on population reduction versus the untreated.

Molecules are shown by their SMILES. Some results are limits rather than exact numbers.

With `CCOc1ccc(-c2ccc(C3COC(c4c(Cl)cncc4Cl)=N3)cc2)cc1` (centres unmarked) [Compound 12, 2-(3,5-dichloro-4-pyridinyl)-4-(4-(4-ethoxyphenyl)phenyl)oxazoline], the pest or weed control at 200 ppm in experiment [1] was in the range of 80 to 89%. Moreover, the pest or weed control at 400 ppm fell in the range of 60 to 69% in experiment [2], 80 to 89% in experiment [3] and 90 to 100% in experiment [5]. Also, the pest or weed control in experiment [4] is 90 to 100%. The pest or weed control at 50 ppm in experiment [6] was in the range of 80 to 89%.
Consider `FC(F)(F)c1ccc(-c2ccc(C3COC(c4c(Cl)cncc4Cl)=N3)cc2)cc1` (centres unmarked) [Compound 5], for which the pest or weed control at 200 ppm in experiment [1] was less than 50%. Moreover, the pest or weed control at 400 ppm was 90 to 100% in experiment [2], less than 50% in experiment [3] and 90 to 100% in experiment [5]. Moreover, the pest or weed control in experiment [4] was 90 to 100%. Moreover, the pest or weed control at 50 ppm in experiment [6] is 80 to 89%.
Turning to `C[C@H]1OC(c2c(Cl)cncc2Cl)=N[C@@H]1c1ccc(-c2ccc(OC(F)(F)F)cc2)cc1` [Compound 48], the pest or weed control at 200 ppm in experiment [1] was less than 50%. Besides, the pest or weed control at 400 ppm in experiment [2] and in experiment [3] was 90 to 100% throughout. For the same molecule, in experiment [4], the pest or weed control lay in the range of 50 to 59%. The pest or weed control at 50 ppm in experiment [6] lay within 80 to 89%.
Regarding `Fc1cc(C(F)(F)F)ccc1-c1ccc(C2COC(c3c(Cl)cncc3Cl)=N2)cc1` (centres unmarked) [Compound 32], the pest or weed control at 200 ppm in experiment [1] lay within 90 to 100%. Moreover, the pest or weed control at 400 ppm in experiment [3] and in experiment [5] was 90 to 100% each time. For the same molecule, the pest or weed control in experiment [4] is 90 to 100%. For the same molecule, the pest or weed control at 50 ppm in experiment [6] fell in the range of 70 to 79%.
With `Cc1cc(-c2ccc(OC(F)(F)F)cc2)ccc1C1COC(c2c(Cl)cncc2Cl)=N1` (centres unmarked) [Compound 44, 2-(3,5-dichloro-4-pyridinyl)-4-(4-(4-trifluoromethoxyphenyl)-2-methylphenyl)-oxazoline], in experiment [1], the pest or weed control at 200 ppm was 50 to 59%. In addition, the pest or weed control at 400 ppm in experiment [2], in experiment [3] and in experiment [5] was 90 to 100% each time. In addition, the pest or weed control in experiment [4] is 90 to 100%. Also, the pest or weed control at 50 ppm in experiment [6] fell in the range of 80 to 89%.
As for `C[S+]([O-])c1ccc(-c2ccc(C3COC(c4c(Cl)cncc4Cl)=N3)cc2)cc1` (centres unmarked) [Compound 36], in experiment [1], the pest or weed control at 200 ppm was less than 50%. Moreover, the results for the pest or weed control at 400 ppm in experiment [2] and in experiment [3] were 90 to 100% and 60 to 69%, respectively. Further, the pest or weed control at 50 ppm in experiment [6] was less than 50%.
`Cc1cc(-c2ccc(C(F)(F)F)cc2)ccc1C1COC(c2c(Cl)cncc2Cl)=N1` (centres unmarked) [Compound 43, 2-(3,5-dichloro-4-pyridinyl)-4-(4-(4-trifluoromethylphenyl)-2-methylphenyl)-oxazoline]: the pest or weed control at 200 ppm in experiment [1] is less than 50%. For the same molecule, the pest or weed control at 400 ppm in experiment [2], in experiment [3] and in experiment [5] was 90 to 100% throughout. The pest or weed control in experiment [4] was in the range of 80 to 89%. Besides, the pest or weed control at 50 ppm in experiment [6] lay within 80 to 89%.
